Measured values reported in US11028052B2, “Compounds useful as modulators of TRPM8” (Firmenich Incorporated, priority 2013, dated 2021).

Columns and labels:
[1] = biological target: T1, hTRPM8 (Homo sapiens, UniProt Q7Z2W7); assay: hTRPM8 cell line agonist assay (section 2.1); assay type: cell-based; settings: for EC50: cell line stably expressing hTRPM8; for EC50 Ratio (WS3): relative to WS3 screened on the same day, greater than one = more potent than WS3
T1 construct: expressed in transfected cells
T1 sequence (Q7Z2W7 whole entry): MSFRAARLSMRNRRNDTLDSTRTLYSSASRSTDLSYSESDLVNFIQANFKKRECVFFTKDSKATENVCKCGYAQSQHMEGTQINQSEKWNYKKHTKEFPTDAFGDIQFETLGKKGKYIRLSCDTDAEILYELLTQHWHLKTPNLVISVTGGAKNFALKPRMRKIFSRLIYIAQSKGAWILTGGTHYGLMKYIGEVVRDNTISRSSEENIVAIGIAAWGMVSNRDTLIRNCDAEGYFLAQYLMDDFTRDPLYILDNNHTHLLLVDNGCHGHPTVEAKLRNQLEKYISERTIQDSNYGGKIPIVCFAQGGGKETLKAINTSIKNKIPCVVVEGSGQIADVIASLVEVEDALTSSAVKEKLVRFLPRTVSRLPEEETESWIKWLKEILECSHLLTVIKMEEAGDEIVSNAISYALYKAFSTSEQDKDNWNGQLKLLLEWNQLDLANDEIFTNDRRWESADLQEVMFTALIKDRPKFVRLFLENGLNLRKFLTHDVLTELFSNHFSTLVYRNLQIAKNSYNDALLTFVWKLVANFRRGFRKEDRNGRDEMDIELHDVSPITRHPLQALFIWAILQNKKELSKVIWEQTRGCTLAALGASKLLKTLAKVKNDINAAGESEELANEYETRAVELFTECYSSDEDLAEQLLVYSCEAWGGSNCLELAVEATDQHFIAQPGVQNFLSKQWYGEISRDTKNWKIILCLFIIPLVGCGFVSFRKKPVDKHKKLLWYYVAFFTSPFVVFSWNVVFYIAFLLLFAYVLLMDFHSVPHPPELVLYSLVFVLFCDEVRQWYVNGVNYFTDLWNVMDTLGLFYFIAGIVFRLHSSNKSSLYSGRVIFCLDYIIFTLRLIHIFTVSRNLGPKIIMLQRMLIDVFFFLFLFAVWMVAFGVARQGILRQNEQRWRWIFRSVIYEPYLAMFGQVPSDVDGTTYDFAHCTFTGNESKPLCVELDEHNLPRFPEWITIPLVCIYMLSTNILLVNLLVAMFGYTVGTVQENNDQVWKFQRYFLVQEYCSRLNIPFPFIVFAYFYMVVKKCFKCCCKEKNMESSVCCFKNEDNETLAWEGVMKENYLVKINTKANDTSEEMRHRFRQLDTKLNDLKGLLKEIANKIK
Method: A cell line which stably expresses hTRPM8 was used in biological assays in association with testing the present compounds with cool-tasting or -feeling properties. Typical compound concentrations tested were 100 μM, 50 μM, 10 μM, 1 μM, and 0.5 μM. The present compounds have shown activity as agonists of hTRPM8. Assay results for compounds are illustrated in the table below. EC50 in micromoles (μM) is presented as well as the activity relative to WS3 (an established, commercially available cooling agent). […] A value of 1 indicates the compound is equipotent to WS3 in the assay. […] It is noted that Compounds 2.A1 to 2.S6 in the table below are the Examples described in this application. For example, Compound 2.B 1 is Example 2.2.

[2] = system: panelists; assay: Sensory studies, cool line scale vs WS-3 (section 2.2); assay type: in vivo, human; settings: for Sensory Results: compound concentration compared in cooling with a known concentration of WS-3
From the text: The results are presented relative to a known concentration of WS-3. A more specific detailed example of the sensory evaluation of selected examples are also presented below. […]

[3] = biological target: T1, hTRPM8; assay: hTRPM8 cell based agonist assay (section 3.1); settings: for EC50: mammalian cell line stably expressing TRPM8; for EC50 Ratio (WS3): relative to WS3
From the text: The present compounds are useful as modulators of TRPM8. The activity of TRPM8 can be readily monitored in cell based assays using fluorescent calcium-sensitive dyes, membrane potential dyes, or sodium-sensitive dyes. The activity of TRPM8 can also be monitored with electrophysiological set-ups, such as patch-clamping and two-electrode voltage clamping. A mammalian cell line derivative which stably expresses TRPM8 was used in biological assays in association with testing the present compounds with cool-tasting or -feeling properties (Servant et al. US 2007/0259354 A1 and references cited therein). Typical compound concentrations tested were 50 μM, 20 μM, 10 μM, 5 μM, 2 μM, 1 μM, 0.5 μM, 0.1 μM, 0.05 μM, 0.01 μM, and other concentration points in between. The present compounds have shown strong activity as agonists of hTRPM8. Assay results for compounds are illustrated in Table 1 below. Specifically, the Compounds listed in Table 3.1, i.e., Compounds 3.A1 to Compounds 3.D1 are the specific compounds as described above.

[4] = system: panelists; assay: Sensory study, cool line scale test vs WS-3 (section 3.2); assay type: in vivo, human; settings: for Average Cooling: Table 3.2, n = 30
Method: Two typical sensory studies are described below each followed by a table summarizing sensory results of selected compounds of the invention (Tables 3.2 and 3.3).
(§1) All samples made with Low Sodium Buffer (LSB) pH ˜7.1 and contain 0.1% ethanol.
(§2) The test is a cool line scale test with timed 30 seconds interval. Compounds are rated on a 15 point line scale where 45 μM WS-3 (N-Ethyl-p-menthane-3-carboxamide) is ranked as a 5 in cool intensity. The present compound was tested to determine at what concentration the cooling intensity is equivalent to 45 μM WS-3. In each test, the panelist was presented with a 0 μM control sample, a 45 μM WS-3 control sample and the experimental compound sample and asked to rate the cooling intensity of each sample. Panelists were also asked to rate bitterness. In the table below there was no significant bitterness detected unless otherwise noted. Also, in the table below, n represents the number of tests completed for a given experiment (#panelists×#repetitions).

[5] = system: panelists; assay: Sensory study, cooling line scale vs WS-3 (section 1.2); assay type: in vivo, human; settings: for Average Cooling: 45 μM WS-3 control, 15 point line scale
Method: Three typical sensory studies are described below each followed by a table summarizing sensory results of selected compounds of the invention (Tables 1.2 to 1.4).
as §1
as §2, with “Compounds” for “The test is a cool line scale test with timed 30 seconds interval. Compounds”, “intensity. In most cases our compounds are” for “intensity. The present compound was”, “panelist is” for “panelist was”, “Panelists are” for “Panelists were”

Row | SMILES | EC50 [1] | EC50 Ratio (WS3) [1] | EC50 [3] | EC50 Ratio (WS3) [3] | further results
1 | CN1C(=O)N(CC(=O)c2ccccc2)C(=O)C1(C)C1=CCCCC1 (centres unmarked) [Compound 2.F3] | 138 nM | 44.0 |  |  | 
2 | CN1CC(C)(C2=CCCCC2)C(=O)N(CC(=O)c2ccccc2)C1=O (centres unmarked) [Compound 2.A1] | 135 nM | 54.6 |  |  | Sensory Results [2]: 10 uM < 45 uM WS-3
3 | CN1CC(C)(C2=CCCCC2)CN(CC(=O)c2ccccc2)C1=O (centres unmarked) [Compound 2.F1] | 2880 nM | 1.6 |  |  | 
4 | CN1C(=O)N(CC(=O)c2cccnc2)C(=O)C(C)(C2=CCCCC2)C1=O (centres unmarked) |  |  |  |  | melting point: 109 to 111 °C
5 | C[C@H](C(=O)N(C)CC(=O)c1ccccc1)C1CCCCC1 [Example 3.2, (S)-2-Cyclohexyl-N-methyl-N-(2-oxo-2-phenylethyl)propanamide] |  |  |  |  | Cooling compared with 0 μM and 45 μM WS-3 (panel conclusion) ([4]; 5 μM): significantly more cooling than 0 μM WS-3 (p<0.05) and not significantly different in cooling than 45 μM WS-3; Average Cooling ([4]; 5 μM, 15 point line scale): 4.0
6 | CN1C(=O)N(CC(=O)c2ccccc2)C(=O)C1(C)C1CC2C=CC1CC2 (centres unmarked) [Compound 2.E3] | 127 nM | 53.5 |  |  | 
7 | CN1C(=O)N(CC(=O)c2ccccc2)C(=O)C(C)(C2=CCCCC2)C1=O (centres unmarked) [Compound 2.M3] | 192 nM | 240.6 |  |  | 
8 | CN1C(=O)N(CC(=O)c2ccccc2)C(=O)C1(C)C1CC2CCC1CC2 (centres unmarked) [Compound 2.I3] | 163 nM | 33.8 |  |  | 
9 | CN1C(=O)N(CC(=O)c2ccc(O)cc2)C(=O)C1(C)C1CCCCC1 (centres unmarked) [Compound 2.D3] | 124 nM | 33.4 |  |  | 
10 | CC1=NN(CC(=O)c2ccccc2)C(=O)C1(C)C1CCCCC1 (centres unmarked) [Example A1] |  |  |  |  | Cooling compared with 0 μM and 45 μM WS-3 (panel conclusion) ([5]; 5 μM): significantly more cooling than 0 μM WS-3 (p<0.05) and not significantly different in cooling than 45 μM WS-3
11 | CCNC(=O)C1CC(C)CCC1C(C)C (centres unmarked) [WS-3, N-Ethyl-p-menthane-3-carboxamide, reference compound] |  |  |  |  | Average Cooling ([5]; Table 1.2, n = 30): 4.4; Average Cooling ([5]; Table 1.3, n = 28): 5.4; Average Cooling ([5]; Table 1.4, n = 28): 4.1; Cool intensity compared with LSB (line scale conclusion) ([2]; 60 μM in LSB at pH 7.1): significantly higher in cool intensity than LSB; Ave Cool ([2]; Table 2.1, 60 μM WS-3, n = 10): 3.7; Average Cooling ([4]; 45 μM WS-3 control): 4.5
12 | CN1C(=O)N(CC(=O)c2cccnc2)C(=O)C1(C)C1CCCCC1 (centres unmarked) [Compound 2.K3] | 172 nM | 30.1 |  |  | Sensory Results [2]: 30 uM~45 uM WS-3
13 | CN1C(=O)N(CC(=O)c2ccccc2)C(=O)C1(C)C1CC2CCC1CC2 (single isomer, unassigned) [Compound 2.A3] | 100 nM | 73.1 |  |  | 
14 | CN1C(=O)N(CC(=O)c2ccc[nH]2)C(=O)C1(C)C1CCCCC1 (centres unmarked) [Compound 2.J3] | 166 nM | 32.1 |  |  | Sensory Results [2]: 15 uM~45 uM WS-3
15 | CC1CCCC1C1(C)C(=O)N(CC(=O)c2ccccc2)C(=O)N1C (mixture of isomers) [Compound 2.L3] | 182 nM | 25.9 |  |  | 
16 | CN1C(=O)N(CC(=O)c2cccc(O)c2)C(=O)C1(C)C1CC2CCC1C2 (centres unmarked) [Compound 2.C3] | 100 nM | 49.1 |  |  | 
17 | CC1CCCC1C1(C)C(=O)N(CC(=O)c2cccc(O)c2)C(=O)N1C (mixture of isomers) [Compound 2.G3] | 146 nM | 32.6 |  |  | Sensory Results [2]: 15 uM < 45 uM WS-3
18 | CN1C(=O)N(CC(=O)c2cccc(O)c2)C(=O)C1(C)C1CC2CCC1C2 (single isomer, unassigned) [Compound 2.B3] |  | 2810.1 |  |  | 

Further lines, with some results ahead:

Row | EC50 [1] | EC50 Ratio (WS3) [1] | EC50 [3] | EC50 Ratio (WS3) [3] | SMILES | further results
19 | 230 nM | 38.1 |  |  | CCN1C(=O)N(CC(=O)c2ccccc2)C(=O)C1(C)C1CCCCC1 (centres unmarked) [Compound 2.P3] | Sensory Results [2]: 15 uM < 45 uM WS-3
20 |  |  | 3390 nM | 1.0 | CC(C(=O)NCC(=O)c1ccccc1)C1CC2CCC1C2 (centres unmarked) [Example 3.F9] | 
21 | 3720 nM | 0.9 |  |  | CN1C(=O)N(CC(=O)c2cccnc2)C(=O)C1(C)CCc1ccccc1 (centres unmarked) [Compound 2.U5] | 
22 |  |  | 13 nM | 581.6 | CC(C(=O)N(C)CC(=O)c1cccc(O)c1)C1CCCCC1 (centres unmarked) [Example 3.A1] | 
23 |  |  | 6240 nM | 1.0 | C[C@H](C(=O)NNC(=O)c1ccccc1)C1CCCCC1 [Example 3.G1] | 
24 | 205 nM | 24.1 |  |  | CC1CCCC1C1(C)C(=O)N(CC(=O)c2ccc[nH]2)C(=O)N1C (centres unmarked) [Compound 2.N3] | Sensory Results [2]: 15 uM < 45 uM WS-3
25 |  |  | 4470 nM | 2.5 | Cc1cccc(C(C)C(=O)N(C)CC(=O)c2ccccc2)c1 (centres unmarked) [Example 3.E6] | 
26 |  |  | 257 nM | 18.6 | CC(C)(C(=O)NCC(=O)c1cccc(F)c1)C1CCCCC1 [Example 3.B7] | 
27 |  |  | 2350 nM | 3.9 | CC(C(=O)N(C)CC(=O)c1ccccc1)c1ccccc1 (centres unmarked) [Example 3.D6] | 
28 |  |  | 10 nM | 577.8 | CC(C(=O)N(C)CC(=O)c1ccccc1)C1CCCCC1 (centres unmarked) [Example 3.A2] | 
29 |  |  | 4170 nM | 1.1 | CC(C)(C(=O)NCC(O)c1ccccc1)C1CCCCC1 (centres unmarked) [Example 3.F8] | 
30 |  |  | 230 nM | 26.5 | CC(C)(C(=O)NCC(=O)c1cccnc1)C1CCCCC1 [Example 3.B4] | 
31 | 223 nM | 21.6 |  |  | CN1C(=O)N(CC(=O)c2ccc[nH]2)C(=O)C1(C)C1CC2CCC1C2 (single isomer, unassigned) [Compound 2.O3] | 
32 |  |  | 2160 nM | 1.9 | CN(CC(=O)c1ccc(F)cc1)C(=O)C(C)(C)C1CCCCC1 [Example 3.E7] | 
33 |  |  | 59 nM | 62.5 | CC(C(=O)N(C)CC(=O)c1cccs1)C1CCCCC1 (centres unmarked) [Example 3.A10] | 
34 |  |  | 28 nM | 221.2 | CC(C(=O)N(C)CC(=O)c1cc(O)cc(O)c1)C1CCCCC1 (centres unmarked) [Example 3.A3] | 
35 |  |  | 41 nM | 132.4 | C[C@H](C(=O)N(C)CC(=O)c1ccsc1)C1CCCCC1 [Example 3.A4] | 
36 | 374 nM | 13.5 |  |  | CN1CC(C)(C2CCCCC2)C(=O)N(CC(=O)c2cccnc2)C1=O (centres unmarked) [Example 2.2, 5-cyclohexyl-1,5-dimethyl-3-(2-oxo-2-(pyridin-3-yl)ethyl)dihydropyrimidine-2,4(1H,3H)-dione] | 
37 |  |  | 504 nM | 9.4 | CC(C)(C(=O)NCC(=O)c1ccc(O)cc1)C1CCCCC1 [Example 3.C5] | 
38 |  |  | 87 nM | 66.5 | CC(C)(C(=O)NCC(=O)c1cc(O)cc(O)c1)C1CCCCC1 [Example 3.A9] | 
